≈ marks a conversion by molar mass, not a printed value.
What was measured:
[1] = biological target: T1, Epidermal growth factor receptor (Homo sapiens, UniProt P00533, L858R/T790M); test: Inhibition of EGFR T790M/L858R mutant (unknown origin); format: protein assay
[2] = Total AUC in rat at 5 mg/kg, po; format: ADME, organism-based; design: dose 5 mg/kg, time AUCmax, route oral; details: in vivo
[3] = biological target: T1, Epidermal growth factor receptor; test: Inhibition of EGFR T790M/L858R mutant autophosphorylation in human H1975 cells; format: cell-based
[4] = biological target: T2, Epidermal growth factor receptor (Homo sapiens, UniProt P00533); test: Inhibition of wild type EGFR (unknown origin)
Target sequence in this assay (P00533 whole entry): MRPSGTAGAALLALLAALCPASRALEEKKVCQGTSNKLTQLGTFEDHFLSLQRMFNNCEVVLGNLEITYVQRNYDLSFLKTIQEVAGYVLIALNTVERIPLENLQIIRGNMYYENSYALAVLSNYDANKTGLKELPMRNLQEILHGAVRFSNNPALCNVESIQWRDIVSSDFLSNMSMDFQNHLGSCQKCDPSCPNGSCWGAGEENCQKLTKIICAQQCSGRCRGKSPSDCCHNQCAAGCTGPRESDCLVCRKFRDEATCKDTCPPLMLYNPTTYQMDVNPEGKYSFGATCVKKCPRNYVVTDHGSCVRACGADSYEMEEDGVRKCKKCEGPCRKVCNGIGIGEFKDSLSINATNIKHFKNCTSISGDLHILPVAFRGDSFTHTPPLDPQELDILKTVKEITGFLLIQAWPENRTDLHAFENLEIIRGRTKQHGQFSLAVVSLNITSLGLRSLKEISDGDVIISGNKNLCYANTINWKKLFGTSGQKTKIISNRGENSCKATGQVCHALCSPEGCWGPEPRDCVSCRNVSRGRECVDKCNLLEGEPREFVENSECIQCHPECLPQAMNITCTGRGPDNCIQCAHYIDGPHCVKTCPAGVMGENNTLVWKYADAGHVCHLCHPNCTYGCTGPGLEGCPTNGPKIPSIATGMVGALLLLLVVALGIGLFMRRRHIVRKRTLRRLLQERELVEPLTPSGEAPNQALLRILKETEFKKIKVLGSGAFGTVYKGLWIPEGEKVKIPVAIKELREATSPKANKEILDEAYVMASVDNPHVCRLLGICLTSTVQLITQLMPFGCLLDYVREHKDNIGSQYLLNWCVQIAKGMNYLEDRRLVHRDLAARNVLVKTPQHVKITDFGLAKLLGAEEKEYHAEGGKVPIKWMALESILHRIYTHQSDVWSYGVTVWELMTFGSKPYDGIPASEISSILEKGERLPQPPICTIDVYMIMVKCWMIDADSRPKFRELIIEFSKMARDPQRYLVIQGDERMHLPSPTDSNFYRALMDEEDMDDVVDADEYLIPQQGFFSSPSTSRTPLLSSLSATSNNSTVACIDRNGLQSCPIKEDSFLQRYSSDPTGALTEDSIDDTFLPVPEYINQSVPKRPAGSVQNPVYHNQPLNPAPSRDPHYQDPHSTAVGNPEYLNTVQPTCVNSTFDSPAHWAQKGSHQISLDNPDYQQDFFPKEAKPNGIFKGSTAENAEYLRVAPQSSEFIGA

[5] = Apparent permeability from the apical to basolateral side in MDCK cells; format: ADME, cell-based, Canis lupus familiaris; details: dog
[6] = biological target: T2, Epidermal growth factor receptor; test: Inhibition of EGFR T790M/deletion (746 to 750 residues) mutant (unknown origin); format: protein assay
Target sequence in this assay (P00533 25-1210 limits assumed, change not shown): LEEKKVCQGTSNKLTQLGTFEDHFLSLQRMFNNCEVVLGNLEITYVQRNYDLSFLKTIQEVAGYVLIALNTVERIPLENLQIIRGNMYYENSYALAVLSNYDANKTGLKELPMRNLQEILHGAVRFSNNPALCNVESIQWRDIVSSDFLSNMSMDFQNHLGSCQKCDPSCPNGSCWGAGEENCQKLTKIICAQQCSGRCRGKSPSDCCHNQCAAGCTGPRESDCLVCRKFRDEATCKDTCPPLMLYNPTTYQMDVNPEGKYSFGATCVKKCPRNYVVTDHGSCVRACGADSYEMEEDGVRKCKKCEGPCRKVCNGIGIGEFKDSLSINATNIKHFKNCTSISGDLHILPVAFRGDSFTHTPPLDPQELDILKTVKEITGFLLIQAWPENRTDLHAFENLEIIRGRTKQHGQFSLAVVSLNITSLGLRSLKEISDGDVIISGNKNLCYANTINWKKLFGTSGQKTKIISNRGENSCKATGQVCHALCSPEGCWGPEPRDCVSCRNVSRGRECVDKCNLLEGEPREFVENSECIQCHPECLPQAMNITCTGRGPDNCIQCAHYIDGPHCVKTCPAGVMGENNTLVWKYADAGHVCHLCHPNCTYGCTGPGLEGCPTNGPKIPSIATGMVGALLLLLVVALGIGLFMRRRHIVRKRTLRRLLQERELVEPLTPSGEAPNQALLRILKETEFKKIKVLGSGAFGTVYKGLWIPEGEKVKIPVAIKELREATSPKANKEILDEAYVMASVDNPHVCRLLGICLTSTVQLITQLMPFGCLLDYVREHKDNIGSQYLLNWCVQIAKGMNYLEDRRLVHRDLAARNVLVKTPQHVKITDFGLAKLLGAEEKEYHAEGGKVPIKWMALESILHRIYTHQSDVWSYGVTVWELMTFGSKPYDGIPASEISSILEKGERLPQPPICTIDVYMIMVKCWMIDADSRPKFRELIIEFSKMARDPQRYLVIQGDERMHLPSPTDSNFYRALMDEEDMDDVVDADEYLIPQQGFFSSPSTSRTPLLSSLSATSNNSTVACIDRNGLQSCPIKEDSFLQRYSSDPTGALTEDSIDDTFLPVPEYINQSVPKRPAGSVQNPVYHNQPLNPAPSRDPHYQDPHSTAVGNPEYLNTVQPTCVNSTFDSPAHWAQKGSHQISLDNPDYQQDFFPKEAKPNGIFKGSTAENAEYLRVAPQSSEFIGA

[7] = biological target: Epidermal growth factor receptor (Homo sapiens, UniProt P00533, L858R); test: Inhibition of EGFR L858R mutant (unknown origin); format: protein assay
[8] = Oral bioavailability in rat at 5 mg/kg; format: ADME, organism-based; details: in vivo
[9] = Volume of distribution at steady state in rat; format: ADME, organism-based; details: in vivo, read-out: Vdss
Rattus norvegicus = test: Unbound AUC in rat at 5 mg/kg, po; format: ADME, organism-based; details: in vivo
[10] = Efflux ratio of permeability from basolateral to apical side over apical to basolateral side in MDCK cells; format: ADME, cell-based, Canis lupus familiaris; details: dog
[11] = biological target: T2, Epidermal growth factor receptor; test: Inhibition of EGFR deletion (746 to 750 residues) mutant (unknown origin); format: protein assay
Target sequence in this assay (P00533 25-1210 limits assumed, change not shown): as above

[12] = Plasma clearance in iv dosed rat; format: ADME, organism-based
[13] = Drug excretion in iv dosed rat urine assessed as glucuronide metabolite; format: ADME, organism-based; details: in vivo
[14] = biological target: Receptor tyrosine-protein kinase erbB-2 (Homo sapiens) (UniProt P04626); test: Inhibition of ERBB2 (unknown origin) at 1000 nM
[15] = biological target: High affinity nerve growth factor receptor (Homo sapiens) (UniProt P04629); test: Inhibition of TRKA (unknown origin) at 1000 nM
[16] = Drug excretion in iv dosed rat urine assessed as oxidative metabolite; format: ADME, organism-based; details: in vivo
[17] = Drug excretion in iv dosed rat bile assessed as oxidative metabolite; format: ADME, organism-based; details: in vivo
[18] = biological target: Receptor tyrosine-protein kinase erbB-4 (Homo sapiens) (UniProt Q15303); test: Inhibition of ERBB4 (unknown origin) at 1000 nM
[19] = biological target: Tyrosine-protein kinase Lck (Homo sapiens) (UniProt P06239); test: Inhibition of LCK (unknown origin) at 1000 Nm
[20] = biological target: Proto-oncogene tyrosine-protein kinase Src (Homo sapiens) (UniProt P12931); test: Inhibition of SRC (unknown origin) at 1000 nM
[21] = biological target: T3, Inhibitor of nuclear factor kappa-B kinase subunit epsilon (Homo sapiens) (UniProt Q14164); test: Inhibition of IKKepsilon (unknown origin) at 1000 nM
T3 sequence (whole entry): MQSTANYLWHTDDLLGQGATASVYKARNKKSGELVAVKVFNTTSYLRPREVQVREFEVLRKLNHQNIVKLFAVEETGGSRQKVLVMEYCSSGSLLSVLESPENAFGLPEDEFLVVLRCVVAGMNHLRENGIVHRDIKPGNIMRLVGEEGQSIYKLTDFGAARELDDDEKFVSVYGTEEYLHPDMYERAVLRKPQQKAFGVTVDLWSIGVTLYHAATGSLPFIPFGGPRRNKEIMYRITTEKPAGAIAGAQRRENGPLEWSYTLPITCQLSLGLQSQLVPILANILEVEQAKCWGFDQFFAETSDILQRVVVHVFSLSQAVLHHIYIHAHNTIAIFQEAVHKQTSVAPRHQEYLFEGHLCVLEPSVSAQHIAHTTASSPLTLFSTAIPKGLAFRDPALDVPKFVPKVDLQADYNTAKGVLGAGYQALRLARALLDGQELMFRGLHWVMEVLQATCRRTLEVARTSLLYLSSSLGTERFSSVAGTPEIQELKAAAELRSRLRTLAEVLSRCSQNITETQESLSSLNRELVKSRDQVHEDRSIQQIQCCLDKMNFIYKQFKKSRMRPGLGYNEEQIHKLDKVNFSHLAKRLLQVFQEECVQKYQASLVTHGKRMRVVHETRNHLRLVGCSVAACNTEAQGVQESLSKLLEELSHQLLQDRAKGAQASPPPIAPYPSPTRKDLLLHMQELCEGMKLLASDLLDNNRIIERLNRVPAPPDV

[22] = biological target: Tyrosine-protein kinase JAK2 (Homo sapiens) (UniProt O60674); test: Inhibition of JAK2 (unknown origin) at 1000 nM
[23] = biological target: Serine/threonine-protein kinase Chk1 (Homo sapiens) (UniProt O14757); test: Inhibition of CHK1 (unknown origin) at 1000 nM
[24] = test system: Epidermal growth factor receptor (Homo sapiens), P00533 [L858R,T790M]; test: Inhibition of EGFR T790M/L858R double mutant (unknown origin) at 1000 nM; format: protein assay
[25] = biological target: Receptor-type tyrosine-protein kinase FLT3 (Homo sapiens) (UniProt P36888); test: Inhibition of FLT3 (unknown origin) at 1000 nM
[26] = biological target: Dual specificity mitogen-activated protein kinase kinase 1 (Homo sapiens) (UniProt Q02750); test: Inhibition of MEK1 (unknown origin) at 1000 nM
[27] = test system: RAF proto-oncogene serine/threonine-protein kinase (Homo sapiens), P04049 [Y340D,Y341D]; test: Inhibition of RAF1 Y340D/Y341D double mutant (unknown origin) at 1000 nM
[28] = Drug excretion in iv dosed rat bile assessed as glucuronide metabolite; format: ADME, organism-based; details: in vivo
[29] = biological target: Mitogen-activated protein kinase 1 (Homo sapiens) (UniProt P28482); test: Inhibition of ERK2 (unknown origin) at 1000 nM
[30] = biological target: Ribosomal protein S6 kinase beta-1 (Homo sapiens) (UniProt P23443); test: Inhibition of p70S6K(unknown origin) at 1000 nM
[31] = biological target: CDK2/Cyclin A2 (Homo sapiens) (UniProt P24941+P20248); test: Inhibition of CDK2/cyclinA (unknown origin) at 1000 nM; format: protein-complex assay
[32] = biological target: Vascular endothelial growth factor receptor 2 (Homo sapiens) (UniProt P35968); test: Inhibition of KDR (unknown origin) at 1000 nM
[33] = biological target: Aurora kinase B (Homo sapiens) (UniProt Q96GD4); test: Inhibition of Aurora B (unknown origin) at 1000 nM
[34] = Kinetic solubility of compound; format: physicochemical; details: read-out: Kinetic_solubility
Hepatocyte [35] = test: Drug metabolism in human hepatocytes assessed as glucuronidation; format: ADME, cell-based
Hepatocyte [36] = test: Drug metabolism in rat hepatocytes assessed as glucuronidation; format: ADME, cell-based

T1 sequence (P00533 25-1210 T790M/L858R limits assumed): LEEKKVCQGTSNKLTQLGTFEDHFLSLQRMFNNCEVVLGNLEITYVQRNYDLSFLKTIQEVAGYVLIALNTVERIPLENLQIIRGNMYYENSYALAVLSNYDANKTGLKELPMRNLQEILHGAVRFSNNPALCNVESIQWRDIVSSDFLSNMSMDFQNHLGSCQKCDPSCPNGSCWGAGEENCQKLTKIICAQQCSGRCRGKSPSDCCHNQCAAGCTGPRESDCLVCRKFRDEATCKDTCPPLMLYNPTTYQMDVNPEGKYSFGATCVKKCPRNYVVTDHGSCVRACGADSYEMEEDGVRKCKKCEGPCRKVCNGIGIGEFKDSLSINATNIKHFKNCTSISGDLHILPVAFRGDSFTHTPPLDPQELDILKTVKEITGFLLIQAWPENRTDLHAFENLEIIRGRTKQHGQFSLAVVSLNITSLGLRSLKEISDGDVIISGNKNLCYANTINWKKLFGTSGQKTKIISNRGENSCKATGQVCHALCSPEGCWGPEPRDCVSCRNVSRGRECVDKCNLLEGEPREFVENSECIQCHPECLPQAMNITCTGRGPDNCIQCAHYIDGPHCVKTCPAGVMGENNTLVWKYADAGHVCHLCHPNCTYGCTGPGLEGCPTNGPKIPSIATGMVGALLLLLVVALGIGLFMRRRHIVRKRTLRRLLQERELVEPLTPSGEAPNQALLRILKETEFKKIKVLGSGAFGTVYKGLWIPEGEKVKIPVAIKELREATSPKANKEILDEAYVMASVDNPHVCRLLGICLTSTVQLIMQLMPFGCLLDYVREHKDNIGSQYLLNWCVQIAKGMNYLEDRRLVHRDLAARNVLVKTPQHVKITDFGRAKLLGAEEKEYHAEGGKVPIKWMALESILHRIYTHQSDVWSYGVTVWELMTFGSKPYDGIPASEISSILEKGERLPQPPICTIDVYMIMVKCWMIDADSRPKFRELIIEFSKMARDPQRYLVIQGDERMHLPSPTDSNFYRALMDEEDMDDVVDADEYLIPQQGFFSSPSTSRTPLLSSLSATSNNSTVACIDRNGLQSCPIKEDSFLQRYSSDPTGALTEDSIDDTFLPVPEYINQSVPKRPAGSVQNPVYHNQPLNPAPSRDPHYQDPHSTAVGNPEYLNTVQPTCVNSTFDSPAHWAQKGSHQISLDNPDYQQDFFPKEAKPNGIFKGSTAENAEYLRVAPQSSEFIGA
Chain of Epidermal growth factor receptor (Homo sapiens, UniProt P00533, L858R) (P00533 25-1210 L858R limits assumed): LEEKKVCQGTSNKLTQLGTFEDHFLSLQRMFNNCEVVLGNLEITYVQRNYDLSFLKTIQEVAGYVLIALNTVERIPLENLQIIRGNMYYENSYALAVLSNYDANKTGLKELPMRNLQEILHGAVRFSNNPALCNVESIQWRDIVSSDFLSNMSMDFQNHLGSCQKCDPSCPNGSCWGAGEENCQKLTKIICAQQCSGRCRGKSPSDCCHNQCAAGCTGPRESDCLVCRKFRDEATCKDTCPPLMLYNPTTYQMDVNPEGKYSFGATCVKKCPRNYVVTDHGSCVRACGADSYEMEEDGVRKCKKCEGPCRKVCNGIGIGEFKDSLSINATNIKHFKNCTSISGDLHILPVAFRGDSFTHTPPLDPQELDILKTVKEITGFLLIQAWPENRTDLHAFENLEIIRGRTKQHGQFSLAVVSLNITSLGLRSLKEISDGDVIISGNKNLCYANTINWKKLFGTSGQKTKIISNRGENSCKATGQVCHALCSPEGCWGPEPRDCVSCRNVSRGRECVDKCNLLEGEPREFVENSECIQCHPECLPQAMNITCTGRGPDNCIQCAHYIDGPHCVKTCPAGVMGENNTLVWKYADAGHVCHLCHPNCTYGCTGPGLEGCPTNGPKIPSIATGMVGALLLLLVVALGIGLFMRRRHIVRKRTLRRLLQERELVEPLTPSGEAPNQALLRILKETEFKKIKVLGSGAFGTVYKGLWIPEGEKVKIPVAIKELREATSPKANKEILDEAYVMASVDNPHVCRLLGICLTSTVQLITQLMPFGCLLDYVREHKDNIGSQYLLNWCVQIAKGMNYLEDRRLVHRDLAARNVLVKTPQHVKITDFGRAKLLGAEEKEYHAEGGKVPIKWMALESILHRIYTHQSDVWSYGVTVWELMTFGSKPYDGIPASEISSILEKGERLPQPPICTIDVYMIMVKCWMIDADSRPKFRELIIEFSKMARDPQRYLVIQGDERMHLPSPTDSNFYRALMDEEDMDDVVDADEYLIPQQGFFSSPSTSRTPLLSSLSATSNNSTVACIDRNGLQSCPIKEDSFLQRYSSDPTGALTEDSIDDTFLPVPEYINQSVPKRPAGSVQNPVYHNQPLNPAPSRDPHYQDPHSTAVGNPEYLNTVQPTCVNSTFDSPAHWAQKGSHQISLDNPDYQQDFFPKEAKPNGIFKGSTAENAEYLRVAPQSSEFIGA

## CC1(C)OCc2c(Nc3n[nH]c4ccccc34)nc(-c3c[nH]nn3)nc21
[1]
  Ki: 0.732 µM

## CC1(C)OCc2c(Nc3n[nH]c4cc(Cl)ccc34)nc(-c3cn[nH]c3)nc21
[1]
  Ki: 0.0224 µM

## CC1(C)OCc2c(Nc3nsc4ccccc34)nc(-c3cn[nH]c3)nc21
[1]
  Ki: 0.747 µM

## CC1(C)OCc2c(C(=O)c3n[nH]c4ccccc34)nc(-c3cn[nH]c3)nc21
[1]
  Ki: 0.104 µM

## CC1(C)OCc2c(Nc3n[nH]c4ccncc34)nc(-c3cn[nH]c3)nc21
[1]
  Ki: > 2 µM

## CC1(C)OCc2c(Nc3n[nH]c4c(F)cccc34)nc(-c3cn[nH]c3)nc21
[1]
  Ki: 0.003 µM

## CC1(C)OCc2c(Nc3n[nH]c4c(F)cc(F)cc34)nc(-c3cn[nH]c3)nc21
[1]
  Ki: 0.0104 µM

## CC1(C)OCc2c(Nc3n[nH]c4ccccc34)nc(-c3cc[nH]n3)nc21
[1]
  Ki: 0.175 µM

## Cn1nccc1-c1nc(Nc2n[nH]c3ccccc23)c2c(n1)C(C)(C)OC2
[1]
  Ki: 0.0343 µM
[2]
  AUC: 7.5 µM·h
[3]
  IC50: 3 µM
[4]
  Ki: 0.0011 µM
[5]
  Papp A→B: 12.9 ×10⁻⁶ cm/s
[6]
  Ki: 0.0213 µM
[7]
  Ki: < 0.0005 µM
[8]
  bioavailability: 117%
[9]
  Vd: 2.3 L/kg
Rattus norvegicus
  fAUC: 0.23 µM·h
[10]
  efflux ratio: 0.9
[11]
  Ki: < 0.0005 µM
[12]
  clearance: 38 mL/min/kg

## CC1(C)OCc2c(Nc3n[nH]c4c(Cl)cc(F)cc34)nc(-c3cn[nH]c3)nc21
[1]
  Ki: 0.016 µM

## CC1(C)OCc2c(Nc3n[nH]c4c(Cl)cccc34)nc(-c3cn[nH]c3C(F)F)nc21
[13]
  Drug excretion: metabolite_detected
[1]
  Ki: 0.009 µM
[14]
  inhibition: 91.8%
[2]
  AUC: 3.4 µM·h
[3]
  IC50: 0.37 µM
[4]
  Ki: 0.0065 µM
[15]
  inhibition: 15.3%
[5]
  Papp A→B: 8.4 ×10⁻⁶ cm/s
[16]
  Drug excretion: metabolite_detected
[6]
  Ki: 0.0025 µM
[17]
  Drug excretion: metabolite_detected
[18]
  inhibition: 97%
[19]
  inhibition: 85.7%
[20]
  inhibition: 47.6%
[21]
  inhibition: 1.9%
[22]
  inhibition: 10.1%
[7]
  Ki: 0.0034 µM
[23]
  inhibition: 6.9%
[24]
  inhibition: 90.8%
[8]
  bioavailability: 62%
[25]
  inhibition: 38.1%
[26]
  inhibition: -4.5%
[27]
  inhibition: 38.4%
[9]
  Vd: 3.3 L/kg
Rattus norvegicus
  fAUC: 0.09 µM·h
[10]
  efflux ratio: 0.7
[28]
  Drug excretion: metabolite_detected
[29]
  inhibition: 4.5%
[30]
  inhibition: 2.7%
[31]
  inhibition: -4%
[32]
  inhibition: 96.4%
[33]
  inhibition: -7%
[34]
  solubility kinetic: 3 µM (≈ 1.3 µg/mL)
[11]
  Ki: 0.0017 µM
[12]
  clearance: 36 mL/min/kg

## CC1(C)OCc2c(Oc3n[nH]c4ccccc34)nc(-c3cn[nH]c3)nc21
[1]
  Ki: 0.085 µM

## CC1(C)OCc2c(Nc3n[nH]c4cccc(F)c34)nc(-c3cn[nH]c3)nc21
[1]
  Ki: 0.017 µM

## CC1(C)OCc2c(Nc3n[nH]c4ccc(F)cc34)nc(-c3cn[nH]c3)nc21
[1]
  Ki: 0.008 µM
Hepatocyte [35]
  Drug metabolism: metabolite_detected
Hepatocyte [36]
  Drug metabolism: metabolite_detected
[9]
  Vd: 6.8 L/kg
[12]
  clearance: 81 mL/min/kg

## CC1(C)OCc2c(Nc3n[nH]c4c3CCCC4)nc(-c3cn[nH]c3)nc21
[1]
  Ki: > 2 µM

## CC1(C)OCc2c(Nc3c[nH]c4ccccc34)nc(-c3cn[nH]c3)nc21
[1]
  Ki: 0.017 µM

## Cc1cc(Nc2nc(-c3cn[nH]c3)nc3c2COC3(C)C)n[nH]1
[1]
  Ki: 0.844 µM

## CC1(C)OCc2c(Nc3nc4ccccc4s3)nc(-c3cn[nH]c3)nc21
[1]
  Ki: > 2 µM

## CC1(C)OCc2c(Nc3n[nH]c(Cl)c3Cl)nc(-c3cn[nH]c3)nc21
[1]
  Ki: 0.389 µM

## CC1(C)OCc2c(Nc3n[nH]c4c(C(F)(F)F)cccc34)nc(-c3cn[nH]c3)nc21
[1]
  Ki: 0.134 µM
[2]
  AUC: 0.36 µM·h
Hepatocyte [35]
  Drug metabolism: metabolite_detected
[5]
  Papp A→B: 8.5 ×10⁻⁶ cm/s
Hepatocyte [36]
  Drug metabolism: metabolite_detected
[8]
  bioavailability: 5%
[9]
  Vd: 2.4 L/kg
Rattus norvegicus
  fAUC: 0.03 µM·h
[10]
  efflux ratio: 1.3
[34]
  solubility kinetic: 3 µM (≈ 1.25 µg/mL)
[12]
  clearance: 27 mL/min/kg

## CC1(C)OCc2c(Nc3n[nH]c4ccccc34)nc(-c3cscn3)nc21
[1]
  Ki: 0.0056 µM

## CC1(C)OCc2c(Nc3n[nH]c4cc(F)ccc34)nc(-c3cn[nH]c3)nc21
[1]
  Ki: 0.002 µM

## CC1(C)OCc2c(Nc3n[nH]c4cc(C(F)(F)F)ccc34)nc(-c3cn[nH]c3)nc21
[1]
  Ki: > 2 µM
[5]
  Papp A→B: 10.3 ×10⁻⁶ cm/s
[9]
  Vd: 1.2 L/kg
[10]
  efflux ratio: 1.5
[12]
  clearance: 91 mL/min/kg

## Cn1nc(Nc2nc(-c3cn[nH]c3)nc3c2COC3(C)C)c2cccc(F)c21
[1]
  Ki: 0.057 µM
[9]
  Vd: 1.5 L/kg
[12]
  clearance: 60 mL/min/kg

## CN(c1nc(-c2cn[nH]c2)nc2c1COC2(C)C)c1n[nH]c2ccccc12
[1]
  Ki: 0.519 µM

## CC1(C)OCc2c(Nc3n[nH]c4c(Cl)c(F)ccc34)nc(-c3cn[nH]c3)nc21
[1]
  Ki: 0.004 µM
[5]
  Papp A→B: 7.3 ×10⁻⁶ cm/s
[9]
  Vd: 5.5 L/kg
[10]
  efflux ratio: 1.1
[12]
  clearance: 60 mL/min/kg
